Assays:
[1] = set-up: method as in PMID 33979164; settings: pH 7.0, over 5 h; cited from earlier work
[2] = set-up: method as in PMID 33979164; settings: cited from earlier work
[3] = set-up: method as in PMID 33979164; settings: cited from earlier work; remark: listed apart in the source
[4] = set-up: method as in PMID 36678931; settings: pH 6.5, over 6 d; cited from earlier work
[5] = Pharmacokinetic study after single SC injection in BALB/c mice; type: in vivo; settings: mouse, in vivo, single SC 30 mg/kg
Procedure: The pharmacokinetic profile of prodrug 25 was evaluated in mice, in a study undertaken at WuXi AppTec. Prodrug 25 was dissolved in a sterile vehicle of DMSO/Solutol HS15/water (10:10:80) to give a clear solution with a final concentration of 6 mg/mL. The same procedure was used to prepare a 6 mg/mL solution of RAL as a control. Six male BALB/c mice were used, each weighing 18–25 g and aged between 7–9 weeks (three per group). A single 30 mg/kg dose of prodrug 25 was administered to each animal in the treatment group (subcutaneously, in the thoracic region). Similarly, RAL (30 mg/kg) was administered to each animal in the control group. Blood samples were taken at the time points indicated below, up to the experiment endpoint (96 h).
For each animal, blood samples (30 μL each) were collected from the submandibular or saphenous vein over a period of 96 h, at the following time points: zero/pre-dose; then 0.25, 0.5, 1, 2, 3, 4, 5, 6, 24, 48, and 96 h. All samples were transferred into pre-chilled commercial K2EDTA tubes and placed on wet ice until processing for plasma, which was obtained by centrifugation at 4 °C and 3200× g for 10 min, within 30 min of sampling. The plasma samples were transferred to polypropylene tubes, snap-frozen on dry ice, and kept at −70 ± 10 °C until LC-MS/MS analysis.
An LC-MS/MS method was developed to measure the concentrations of prodrug 25 and RAL in the biological matrix. Two mobile phases were used: mobile phase A (0.025% NH4OH and 2 mM NH4OAc in 95:5 v/v water/MeCN) and mobile phase B (0.025% NH4OH and 2 mM NH4OAc in 5:95 v/v water/MeCN). A UPLC method was performed using an LC-MS/MS-BM Triple Quad 6500 plus system with an ACQUITY UPLC BEH C18 1.7 μm column (2.1 × 50 mm) at a flow rate of 0.65 mL/min. The assay time was 2.5 min, and the solvent B composition was as follows: 10–100% (0.2–1.4 min), 30% (1.41–1.7 min), 95% (2.0–2.4 min), and 10% (2.41–2.5 min). The retention times for the prodrug, RAL and the internal standards (tolbutamide and verapamil) were 0.76, 1.04, 0.66, and 0.97 min, respectively. Quantification was performed by monitoring the transition of m/z 835.3 [M+H]^+ to 457.2 for prodrug 25, representing the cyclisation of the linker with the amidic RAL such as in side-product 22; whereas for RAL, the transition m/z 445.2 [M+H]^+ to 361.2 was followed, representing the loss of the 2-methyl-1,3,4-oxadiazole moiety as the main fragmentation pathway. For the internal standards, the m/z transition from 455.2 [M+H]^+ to 164.9 was used for verapamil (corresponding to formation of the verapamil fragment [CH2CH2-(3,4-dimethoxy phenyl)]^+), and for tolbutamide, the transition of m/z of 271.1 [M+H]^+ to 155.1 was used, representing formation of the [CH3-Ph-SO2]^+ fragment. […] The method was linear over the measured standard concentrations for 25 and RAL. The mean plasma concentration was determined for 25 and RAL (as metabolite or control) at each sampling time point. Pharmacokinetic parameters were then calculated by non-compartmental analysis of plasma concentration/time profiles using the Phoenix WinNonlin 6.3 software. The computed parameters were as follows: peak plasma concentration (Cmax); the time over which the initial concentration is reduced to half (t½); area under the plasma concentration versus time curve from time zero to 96 h (AUC 0–96 h); and mean residence time from time zero to 96 h (MRT 0–96 h).
Since in vitro models are not fully predictive of in vivo pharmacokinetics, especially for prodrugs, assessment of these characteristics still relies on in vivo studies. Therefore, the pharmacokinetic profile of prodrug 25 was evaluated in mice. Compound 25 and the control (RAL) were dissolved in DMSO/Solutol HS15/water (10:10:80). For a single SC injection of 25 (30 mg/kg) in BALB/c mice (n = 3), the plasma concentrations of prodrug and released RAL were measured at the following time points: zero/pre-dose; then 0.25, 0.5, 1, 2, 3, 4, 5, 6, 24, 48, and 96 h. […]

[6] = set-up: method as in PMID 23515248; settings: cited from earlier work
[7] = set-up: method as in PMID 18321239; settings: cited from earlier work
[8] = plasma level of the dosed compound, male BALB/c mice, n = 3

In the case of CNCCCOC(=O)OCOc1c(-c2ccc(Oc3ccc(OC(F)(F)F)cc3)cc2F)c(C)nc2cc(OC)c(Cl)cc12 [Compound 2], the “payload released over 5 h” value [1] is given as greater than 55%, the “aqueous solubility compared with the parent compound” value [2] is given as “enhanced” and the “oral bioavailability compared with the parent compound” value [3] is given as “enhanced”.

For C#CCCCNCCCCOC(=O)OCOc1ccc(N)cc1C(=O)O [Compound 4], the “release of mesalamine over 6 d” value [4] is listed as 92%.

Work on Cc1nnc(C(=O)NC(C)(C)c2nc(C(=O)NCc3ccc(F)cc3)c(O)c(=O)n2C)o1 [RAL, raltegravir] yielded a concentration at 6 h ([5]; male, RAL control, BALB/c mice, 6 h, read-out: plasma concentration remaining after 6 h) of 10.7 ng/mL, a Cmax [5, 8] of 6230 ng/mL and a Tmax [5, 8] of 19.8 min. The AUC(0-t) ([5]; plasma level of the dosed compound, male BALB/c mice, n = 3, read-out: AUC 0–96 h) was 9890 ng·h/mL, the half-life ([5]; plasma level of the dosed compound, male BALB/c mice, n = 3, read-out: t½ (converted)) was 45.6 min and the pKa [6] was 6.7. For the same compound, the “half-life (t½)” value [7] was 420 to 720 min.

From paper PMC10224444, “Novel Perspectives on the Design and Development of a Long-Acting Subcutaneous Raltegravir Injection for Treatment of HIV—In Vitro and In Vivo Evaluation” (Pharmaceutics, 2023)
